The assay deals with human PD-L1 (Homo sapiens (Human), UniProt Q9NZQ7). Nature of the assay: T cell activation luciferase reporter cell culture system (T Cell Activation Assay). The assay is classed as cell-based. As to conditions: luciferase reporter assay; PD-L1 aAPC/CHO-K1 cells with PD-1 effector Jurkat T cells.

SMILES strings stand for the structures.

Drawing on patent US20240246964A1 (Arbutus Biopharma Corporation, priority 2021, published 2024), this text covers EC50 for 9 compounds.

As a reminder, the EC50 is the concentration that produces a half-maximal response.

human PD-L1, sequence (Q9NZQ7 19-290): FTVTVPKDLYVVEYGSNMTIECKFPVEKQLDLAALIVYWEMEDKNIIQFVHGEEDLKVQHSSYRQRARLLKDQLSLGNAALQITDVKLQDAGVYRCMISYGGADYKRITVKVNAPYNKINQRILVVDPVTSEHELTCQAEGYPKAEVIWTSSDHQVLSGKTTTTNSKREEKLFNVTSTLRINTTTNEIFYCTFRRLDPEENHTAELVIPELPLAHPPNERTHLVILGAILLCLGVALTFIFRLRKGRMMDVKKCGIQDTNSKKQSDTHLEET

`COc1cc(-c2nccc(-c3cccc(-c4ccc(CN5CC[C@H](C(=O)O)C5)c(OC)n4)c3Cl)c2Cl)ccc1CNC1CCN(C(C)=O)CC1` [Example 388, (S)-1-((6-(3-(2-(4-(((1-acetylpiperidin-4-yl)amino)methyl)-3-methoxyphenyl)-3-chloropyridin-4-yl)-2-chlorophenyl)-2-methoxypyridin-3-yl)methyl)pyrrolidine-3-carboxylic acid] showed a concentration giving a half-maximal response (EC50) of 38.5 nM.

Regarding `COc1cc(-c2nccc(-c3cccc(-c4ccc(CNC5CCN(C(C)=O)CC5)c(OC)n4)c3Cl)c2Cl)ccc1CNCCC(=O)O` [Example 390, 3-((4-(4-(3-(5-(((1-acetylpiperidin-4-yl)amino)methyl)-6-methoxypyridin-2-yl)-2-chlorophenyl)-3-chloropyridin-2-yl)-2-methoxybenzyl)amino)propanoic acid], the concentration giving a half-maximal response (EC50) came to 56.6 nM. This EC50 and that of the compound before are within 1.5-fold of each other.

`COc1cc(-c2nccc(-c3cccc(-c4ccc(CNC5CCOCC5)c(OC)n4)c3Cl)c2Cl)ccc1CNC1CCN(C(C)=O)CC1` [Example 391, 1-(4-((4-(3-chloro-4-(2-chloro-3-(6-methoxy-5-(((tetrahydro-2H-pyran-4-yl)amino)methyl)pyridin-2-yl)phenyl)pyridin-2-yl)-2-methoxybenzyl)amino)piperidin-1-yl)ethan-1-one] registered an EC50 of 18 nM.

As for `COc1cc(-c2nccc(-c3cccc(-c4ccc(CNC5CCN(C(C)=O)CC5)c(OC)n4)c3Cl)c2Cl)ccc1CNC1CCOCC1` [Example 392, 1-(4-(((6-(2-chloro-3-(3-chloro-2-(3-methoxy-4-(((tetrahydro-2H-pyran-4-yl)amino)methyl)phenyl)pyridin-4-yl)phenyl)-2-methoxypyridin-3-yl)methyl)amino)piperidin-1-yl)ethan-1-one], the half-maximal effective concentration (EC50) was found to be 17.6 nM. The EC50 values of the last two compounds are within 1.5-fold of each other.

Compound `COc1cc(-c2nccc(-c3cccc(-c4ccc([C@H](C)N)c(OC)n4)c3Cl)c2Cl)ccc1[C@H](C)N` [Example 393, (S)-1-(6-(3-(2-(4-((S)-1-Aminoethyl)-3-methoxyphenyl)-3-chloropyridin-4-yl)-2-chlorophenyl)-2-methoxypyridin-3-yl)ethan-1-amine] displayed an EC50 of 416 nM.

Regarding `COc1nc(-c2cccc(-c3ccnc(-c4ccc(CNC5CCN(C(C)=O)CC5)c(OC(F)F)c4)c3Cl)c2Cl)ccc1CNC1CCN(C(C)=O)CC1` [Example 394, 1-(4-(((6-(3-(2-(4-(((1-Acetylpiperidin-4-yl)amino)methyl)-3-(difluoromethoxy)phenyl)-3-chloropyridin-4-yl)-2-chlorophenyl)-2-methoxypyridin-3-yl)methyl)amino)piperidin-1-yl)ethan-1-one], a half-maximal response (EC50) required 22.2 nM.

`CNCc1ccc(-c2nccc(-c3cccc(-c4ccc(CNC)c(OC)n4)c3C)c2Cl)cc1OC` [Example 395, 1-(6-(3-(3-Chloro-2-(3-methoxy-4-((methylamino)methyl)phenyl)pyridin-4-yl)-2-methylphenyl)-2-methoxypyridin-3-yl)-N-methylmethanamine]: the response was half-maximal at 81.8 nM (EC50).

Compound `COc1cc(-c2nccc(-c3cccc(-c4ccc(CN5CC6(CCC(=O)N6)C5)c(OC)n4)c3Cl)c2Cl)ccc1CN1CCC(NC(C)=O)CC1` [Example 401, N-(1-(4-(3-Chloro-4-(2-chloro-3-(6-methoxy-5-((6-oxo-2,5-diazaspiro[3.4]-octan-2-yl)methyl)pyridin-2-yl)phenyl)pyridin-2-yl)-2-methoxybenzyl)piperidin-4-yl)acetamide] displayed an EC50 of 20.6 nM. This EC50 lies about 4-fold lower than the previous one.

The compound `COc1cc(-c2nccc(-c3cccc(-c4ccc(CN5CC6(C5)CN(C(C)=O)C6)c(OC)n4)c3Cl)c2Cl)ccc1CN1CCC(NC(C)=O)CC1` [Example 402, N-(1-(4-(4-(3-(5-((6-acetyl-2,6-diazaspiro[3.3]heptan-2-yl)methyl)-6-methoxypyridin-2-yl)-2-chlorophenyl)-3-chloropyridin-2-yl)-2-methoxybenzyl)piperidin-4-yl)acetamide] showed an EC50 of 44.6 nM.
